Assay: Half-life t1/2CT of radical generators, calculated by Arrhenius formulae from supplier data
Assay type: physicochemical
From the text: The half-life of the radical generators used in the compositions for different curing temperatures CT have been calculated by using the well-known formulae given below and data obtained by the supplier of the radical generators (AkzoNobel) (Tables 1-4) kd = A⋅e^(−Ea/RT) [formula] t½ = (ln2)/kd [formula] • Ea = 127.52 kJ/mole • A = 7.59E+13 s^-1 • R = 8.3142 J/mole·K • T = (273.15+°C) K Table 1: The half-life t1/2CT of Trigonox 29C at different curing temperatures CT
kd = A⋅e^(−Ea/RT) [formula] t½ = (ln2)/kd [formula] • Ea = 124.90 kJ/mole • A = 1.54E+14 s^-1 • R = 8.3142 J/mole·K • T = (273.15+°C) K Table 2: The half-life t1/2CT of Trigonox 21S at different curing temperatures CT
kd = A⋅e^(−Ea/RT) [formula] t½ = (ln2)/kd [formula] • Ea = 140.78 kJ/mole • A 1.94E+15 s^-1 • R = 8.3142 J/mole·K • T =(273.15+°C) K Table 3: The half-life t1/2CT of Trigonox 42S at different curing temperatures CT
kd = A⋅e^(−Ea/RT) [formula] t½ = (ln2)/kd [formula] • Ea = 153.46 kJ/mole • A = 4.20E+15 s^-1 • R = 8.3142 J/mole·K • T = (273.15+°C) K Table 4: The half-life t1/2CT of Trigonox B at different curing temperatures CT

CC(C)(C)OOC(C)(C)C [Trigonox B, tert-butyl peroxide]
t1/2 (T 80 °C): 2291.85 h | t1/2 (h) (T 80 °C): 2291,8 h | t1/2 (min) (T 80 °C): 137511,0 min | t1/2 (T 90 °C): 543.4131 h | t1/2 (h) (T 90 °C): 543,4 h | t1/2 (min) (T 90 °C): 32604,8 min | t1/2 (T 95 °C): 272.481 h | t1/2 (h) (T 95 °C): 272,5 h | t1/2 (min) (T 95 °C): 16348,8 min | t1/2 (T 100 °C): 139.18 h | t1/2 (h) (T 100 °C): 139,2 h | t1/2 (min) (T 100 °C): 8350,8 min | t1/2 (T 105 °C): 72.3653 h | t1/2 (h) (T 105 °C): 72,4 h | t1/2 (min) (T 105 °C): 4341,9 min | t1/2 (T 110 °C): 38.2736 h | t1/2 (h) (T 110 °C): 38,3 h | t1/2 (min) (T 110 °C): 2296,4 min | t1/2 (T 120 °C): 11.239 h | t1/2 (h) (T 120 °C): 11,2 h | t1/2 (min) (T 120 °C): 674,4 min | t1/2 (T 130 °C): 3.5075 h | t1/2 (h) (T 130 °C): 3,5 h | t1/2 (min) (T 130 °C): 210,4 min | t1/2 (T 150 °C): 0.4028 h | t1/2 (h) (T 150 °C): 0,4 h | t1/2 (min) (T 150 °C): 24,2 min | t1/2 (T 190 °C): 0.00944 h | t1/2 (h) (T 190 °C): 0,01 h | t1/2 (min) (T 190 °C): 0,6 min
